Laboratory results as given in ChEMBL document CHEMBL3885881, “DrugMatrix”.

Species on record: Rattus norvegicus
Assay: DrugMatrix - Regimen: Daily Repeat
Format: toxicity, organism-based, Sprague-Dawley
Parameters: regimen Daily Repeat, gender Male, age 6-8 weeks
Conditions: in vivo, po, route oral GAVAGE, vehicle .5 % CMC; for BASOPHIL / EOSINOPHIL / ERYTHROCYTE COUNT / HEMATOCRIT / HEMOGLOBIN / LEUKOCYTE COUNT / LYMPHOCYTE / MEAN CORPUSCULAR HEMOGLOBIN / MEAN CORPUSCULAR HEMOGLOBIN CONCENTRATION / MEAN CORPUSCULAR VOLUME / MONOCYTE / NEUTROPHIL / PLATELET COUNT: tissue Blood; for ALANINE AMINOTRANSFERASE / ALBUMIN / ALKALINE PHOSPHATASE / ASPARTATE AMINOTRANSFERASE / BLOOD UREA NITROGEN / CARBON DIOXIDE / CHLORIDE / CHOLESTEROL / CREATINE PHOSPHOKINASE / CREATININE / GLUCOSE / LACTATE DEHYDROGENASE / LIPASE / PHOSPHORUS / POTASSIUM / SODIUM / TOTAL BILIRUBIN / TOTAL PROTEIN / URIC ACID: tissue Plasma
[1] = 0 mg/kg, 72 h, dose level Control, time 3 day
[2] = 0 mg/kg, 120 h, dose level Control, time 5 day
[3] = 1200 mg/kg, 72 h, dose level High, time 3 day
[4] = 1200 mg/kg, 120 h, dose level High, time 5 day

## CCCCC1=NC2(CCCC2)C(=O)N1Cc1ccc(-c2ccccc2-c2nnn[nH]2)cc1 [IRBESARTAN]
[1]
  BASOPHIL: 0.17%
  EOSINOPHIL: 0.83%
  ERYTHROCYTE COUNT: 7.2 x10E6/uL
  HEMATOCRIT: 43.13%
  HEMOGLOBIN: 14.63 G/DL
  LEUKOCYTE COUNT: 9.05 x10E3/uL
  LYMPHOCYTE: 75.17%
  MEAN CORPUSCULAR HEMOGLOBIN: 20.35 pg
  MEAN CORPUSCULAR HEMOGLOBIN CONCENTRATION: 33.95 G/DL
  MEAN CORPUSCULAR VOLUME: 59.93 fL
  MONOCYTE: 2.83%
  NEUTROPHIL: 21.17%
  PLATELET COUNT: 1093.17 x10E3/uL
  ALANINE AMINOTRANSFERASE: 49.17 u/L
  ALBUMIN: 4.33 G/DL
  ALKALINE PHOSPHATASE: 366.5 u/L
  ASPARTATE AMINOTRANSFERASE: 86.33 u/L
  BLOOD UREA NITROGEN: 17 mg/dL
  CARBON DIOXIDE: 24.17 mmol/L
  CHLORIDE: 102.83 MEQ/L
  CHOLESTEROL: 78.33 mg/dL
  CREATINE PHOSPHOKINASE: 320.83 u/L
  CREATININE: 0.3 mg/dL
  GLUCOSE: 140.83 mg/dL
  LACTATE DEHYDROGENASE: 210 u/L
  LIPASE: 9.33 u/L
  PHOSPHORUS: 9.12 mg/dL
  POTASSIUM: 5.65 MEQ/L
  SODIUM: 144.17 MEQ/L
  TOTAL BILIRUBIN: 0.1 mg/dL
  TOTAL PROTEIN: 6.3 G/DL
  URIC ACID: 1.03 mg/dL
[2]
  BASOPHIL: 0.17%
  EOSINOPHIL: 1%
  ERYTHROCYTE COUNT: 7.02 x10E6/uL
  HEMATOCRIT: 43.12%
  HEMOGLOBIN: 14.18 G/DL
  LEUKOCYTE COUNT: 9.63 x10E3/uL
  LYMPHOCYTE: 72%
  MEAN CORPUSCULAR HEMOGLOBIN: 20.25 pg
  MEAN CORPUSCULAR HEMOGLOBIN CONCENTRATION: 32.95 G/DL
  MEAN CORPUSCULAR VOLUME: 61.43 fL
  MONOCYTE: 2.67%
  NEUTROPHIL: 24.5%
  PLATELET COUNT: 1028.5 x10E3/uL
  ALANINE AMINOTRANSFERASE: 42.5 u/L
  ALBUMIN: 4.2 G/DL
  ALKALINE PHOSPHATASE: 300.33 u/L
  ASPARTATE AMINOTRANSFERASE: 87.67 u/L
  BLOOD UREA NITROGEN: 17 mg/dL
  CARBON DIOXIDE: 24.33 mmol/L
  CHLORIDE: 99 MEQ/L
  CHOLESTEROL: 70.67 mg/dL
  CREATINE PHOSPHOKINASE: 891.33 u/L
  CREATININE: 0.3 mg/dL
  GLUCOSE: 139.67 mg/dL
  LACTATE DEHYDROGENASE: 289.83 u/L
  LIPASE: 8.83 u/L
  PHOSPHORUS: 9.5 mg/dL
  POTASSIUM: 5.55 MEQ/L
  SODIUM: 139 MEQ/L
  TOTAL BILIRUBIN: 0.0833 mg/dL
  TOTAL PROTEIN: 6.1 G/DL
  URIC ACID: 0.98 mg/dL
[3]
  BASOPHIL: 0.33%
  EOSINOPHIL: 1%
  ERYTHROCYTE COUNT: 7.31 x10E6/uL
  HEMATOCRIT: 43.7%
  HEMOGLOBIN: 14.73 G/DL
  LEUKOCYTE COUNT: 11.5 x10E3/uL
  LYMPHOCYTE: 81.67%
  MEAN CORPUSCULAR HEMOGLOBIN: 20.17 pg
  MEAN CORPUSCULAR HEMOGLOBIN CONCENTRATION: 33.73 G/DL
  MEAN CORPUSCULAR VOLUME: 59.8 fL
  MONOCYTE: 2%
  NEUTROPHIL: 14.67%
  PLATELET COUNT: 1173.33 x10E3/uL
  ALANINE AMINOTRANSFERASE: 46 u/L
  ALBUMIN: 4.67 G/DL
  ALKALINE PHOSPHATASE: 305.33 u/L
  ASPARTATE AMINOTRANSFERASE: 75 u/L
  BLOOD UREA NITROGEN: 17.67 mg/dL
  CARBON DIOXIDE: 28.33 mmol/L
  CHLORIDE: 103.33 MEQ/L
  CHOLESTEROL: 73 mg/dL
  CREATINE PHOSPHOKINASE: 219 u/L
  CREATININE: 0.3 mg/dL
  GLUCOSE: 133.33 mg/dL
  LACTATE DEHYDROGENASE: 300.67 u/L
  LIPASE: 9.33 u/L
  PHOSPHORUS: 9.03 mg/dL
  POTASSIUM: 5.67 MEQ/L
  SODIUM: 146 MEQ/L
  TOTAL BILIRUBIN: 0.1 mg/dL
  TOTAL PROTEIN: 6.67 G/DL
  URIC ACID: 1.23 mg/dL
[4]
  BASOPHIL: 0.33%
  EOSINOPHIL: 1%
  ERYTHROCYTE COUNT: 7.01 x10E6/uL
  HEMATOCRIT: 42.37%
  HEMOGLOBIN: 14.23 G/DL
  LEUKOCYTE COUNT: 11.4 x10E3/uL
  LYMPHOCYTE: 79.67%
  MEAN CORPUSCULAR HEMOGLOBIN: 20.33 pg
  MEAN CORPUSCULAR HEMOGLOBIN CONCENTRATION: 33.57 G/DL
  MEAN CORPUSCULAR VOLUME: 60.47 fL
  MONOCYTE: 2%
  NEUTROPHIL: 17.33%
  PLATELET COUNT: 1226.33 x10E3/uL
  ALANINE AMINOTRANSFERASE: 44.67 u/L
  ALBUMIN: 4.23 G/DL
  ALKALINE PHOSPHATASE: 299.5 u/L
  ASPARTATE AMINOTRANSFERASE: 74.33 u/L
  BLOOD UREA NITROGEN: 18.67 mg/dL
  CARBON DIOXIDE: 20 mmol/L
  CHLORIDE: 98.33 MEQ/L
  CHOLESTEROL: 74 mg/dL
  CREATINE PHOSPHOKINASE: 216.33 u/L
  CREATININE: 0.27 mg/dL
  GLUCOSE: 136 mg/dL
  LACTATE DEHYDROGENASE: 197.33 u/L
  LIPASE: 8.67 u/L
  PHOSPHORUS: 7.83 mg/dL
  POTASSIUM: 5.6 MEQ/L
  SODIUM: 138 MEQ/L
  TOTAL BILIRUBIN: 0.1 mg/dL
  TOTAL PROTEIN: 6.17 G/DL
  URIC ACID: 0.93 mg/dL
